Our source for the MIC values is DBAASP.

Usually MIC stands for the lowest concentration that inhibits growth of the organism. A high value points to a less susceptible organism.

Converted amounts (≈) assume the structure as drawn. “And” between values parts separate entries of the source, which are not always exact repeats. Equal entries are not always repeated.

Experiment in all cases: ≥ marks a high value that may be exact or a test limit, other limits are often not marked, values filed in µg/mL are converted to µM
Test [1] has as its system Acinetobacter baumannii ATCC 19606.
The subject of test [2] is Bordetella bronchiseptica CUN 11844-99.
In test [3] the test system is Brucella abortus 9.49 (per-).
Test [4] has as its system Escherichia coli ATCC 23716.
Test [5] concerns Escherichia coli ATCC 25922.
Test [6] concerns Pseudomonas aeruginosa CUN 4158-02.
Test [7] concerns Staphylococcus aureus ATCC 43300.
Test [8] relates to Staphylococcus aureus ΔmprFpRBsyn.
For test [9], the system named is Staphylococcus aureus ΔmprF.
The next test deals with Staphylococcus aureus.
A further test concerns Yersinia pestis KIM pYV.

As for `CC[C@H](C)[C@H](NC(=O)[C@H](CCCCN)NC(=O)[C@H](CCCCN)NC(=O)[C@H](CO)NC(=O)[C@@H](NC(=O)CNC(=O)[C@H](CCCN=C(N)N)NC(=O)[C@H](CC(C)C)NC(=O)[C@@H](NC(=O)[C@@H](N)CCCCN)[C@@H](C)CC)C(C)C)C(=O)N[C@@H](CCSC)C(=O)N[C@@H](CCCN=C(N)N)C(=O)N[C@H](C(=O)N[C@@H](Cc1ccccc1)C(=O)N[C@@H](CC(C)C)C(=O)N[C@@H](CCCN=C(N)N)C(=O)N[C@@H](CCCN=C(N)N)C(=O)N[C@H](C(=O)N[C@@H](CC(C)C)C(=O)N[C@H](C(=O)NCC(=O)N[C@@H](CCCCN)C(=O)N[C@@H](CCCCN)C(N)=O)[C@@H](C)O)[C@@H](C)CC)[C@@H](C)O` [KILRGVSKKIMRTFLRRILTGKK], the MIC in test [1] is 1.46 µM (≈ 4 µg/mL); in test [2] it was 0.729 µM (≈ 2 µg/mL); in test [3], 1.46 µM (≈ 4 µg/mL); in [4], 2.92 µM and 6.93 µM; in test [5] it was 1.46 µM (≈ 4 µg/mL); in test [6] it was 1.46 µM (≈ 4 µg/mL). The MIC is 23.3 µM (≈ 64 µg/mL) in [7]; 1.46 µM (≈ 4 µg/mL) in test [8]; 1.46 µM (≈ 4 µg/mL) in test [9]; 5.83 µM (≈ 16 µg/mL) against Staphylococcus aureus; 5.83 µM (≈ 16 µg/mL) against Yersinia pestis KIM pYV.
